We go through 21 compounds from patent EP0630366B1, “SUBSTITUTED HETEROCYCLIC DERIVATIVES USEFUL AS PLATELET AGGREGATION INHIBITORS” (G.D. Searle & Co., priority 1991, dated 1993).

In the first experiment the test system is platelet aggregation. The experiment can be described thus: In-vitro platelet aggregation in PRP (ADP-induced). The settings on record: Canis lupus familiaris; at 10^-5; dog platelet-rich plasma, ADP-induced aggregation; read-out: Dog PRP IC50 (cell prints inhibition at a single concentration). It counts as cell-based, dogs. The procedure: Healthy male or female dogs were fasted for 8 hours prior to drawing blood; then 30 ml whole blood was collected using a butterfly needle and 30 cc plastic syringe with 3 ml of 0.129 M buffered sodium citrate (3.8%). The syringe was rotated carefully as blood was drawn to mix the citrate. Platelet-rich plasma (PRP) was prepared by centrifugation at 975 x g for 3.17 minutes at room temperature allowing the centrifuge to coast to a stop without braking. The PRP was removed from the blood with a plastic pipette and placed in a plastic capped, 50 mL Corning conical sterile centrifuge tube which was held at room temperature. Platelet poor plasma (PPP) was prepared by centrifuging the remaining blood at 2000 x g for 15 minutes at room temperature allowing the centrifuge to coast to a stop without braking. The PRP was adjusted with PPP to a count of 2-3 x 10^8 platelets per mL. 400 uL of the PRP preparation and 50 uL of the compounds solution to be tested or saline were preincubated for 1 minute at 37°C in a BioData, Horsham, PA). 50 uL of adenosine 5' diphosphate (ADP) (50 um final concentration) was added to the cuvettes and the aggregation was monitored for 1 minute. All compounds are tested in duplicate. Results are calculated as follows: Percent of control = [(maximal OD minus initial OD of compound) divided by (maximal OD minus initial OD of control saline)] x 100. The % inhibition = 100 - (percent of control).
The compounds tested and their median inhibitory concentrations (IC50) are recorded in Table I. IC50's (dosage at which 50% of platelet aggregation is inhibited) were calculated by linear regression of the dose response curve.
In the case of `N=C(N)c1ccc(NC(=O)C2CCCCC2C(=O)NC(CC(=O)O)c2cccnc2)cc1` (stereo not drawn) [Example 14], the inhibition at 10 µM is 0%.

The experiment is the same for the next values; noted with them: Canis lupus familiaris; dog platelet-rich plasma, ADP 50 um final concentration; IC50 by linear regression of the dose response curve.
On to `N=C(N)c1ccc(NC(=O)CCC(=O)NC(CC(=O)O)c2cccnc2)cc1` (racemic) [Example 2, D,L-β-[[4-[[4-(aminoiminomethyl)phenyl]amino]-1,4-dioxobutyl]amino]-3-pyridinepropanoic acid], for which the IC50 came out at 93 nM.
Still for that read-out and setting: the result for `N=C(N)c1ccc(NC(=O)C2CC2C(=O)NC(CC(=O)O)c2cccnc2)cc1` (single isomer, unassigned; isomer 2) [Example 27] reads > 10000 nM; that for `N=C(N)c1ccc(NC(=O)CCC(=O)N[C@@H](CC(=O)O)c2cccnc2)cc1` [Example 5, βS-[[4-[[4-(aminoiminomethyl)phenyl]amino]-1,4-dioxobutyl]amino]-3-pyridinepropanoic acid], 47 nM.
Same read-out and setting: the result for `N=C(N)c1ccc(NC(=O)CCC(=O)NC(CC(=O)O)c2ccccn2)cc1` (stereo not drawn) [Example 8] reads 290 nM.
As to `N=C(N)c1ccc(NC(=O)CCC(=O)NC(CC(=O)O)c2ccncc2)cc1` (stereo not drawn) [Example 10], half-maximal inhibition (IC50) required 160 nM.
Still for that read-out and setting: the result for `N=C(N)c1ccc(NC(=O)CCC(=O)NC(CC(=O)O)c2ccc3c(c2)OCO3)cc1` (stereo not drawn) [Example 20, β-[[4-[[4-(aminoiminomethyl)phenyl]amino]-1,4-dioxobutyl]amino]-1,3-benzodioxole-5-propanoic acid] reads 68 nM; that for `CCOC(=O)CC(NC(=O)CCC(=O)Nc1ccc(C(=N)N)cc1)c1cc2c(cc1[N+](=O)[O-])OCO2` (stereo not drawn) [Example 21], > 10000 nM; that for `N=C(N)c1ccc(NC(=O)CCC(=O)NC(CC(=O)O)c2cncnc2)cc1` (stereo not drawn) [Example 22], 59 nM.
With `N=C(N)c1ccc(NC(=O)CCC(=O)NC(CC(=O)O)c2cc3c(cc2[N+](=O)[O-])OCO3)cc1` (stereo not drawn) [Example 34], the IC50 worked out at 1200 nM.

The experiment is the same for the next values; noted with them: dog platelet-rich plasma, ADP 50 um final concentration; IC50 by linear regression of the dose response curve.
In the case of “(±) [[[4-[[4-(aminoiminomethyl)phenyl]-amino]-1,4-dioxo-(2E)-butenyl]amino]-3-pyridinepropanoic acid [Example 29]”, 110 nM corresponded to half-maximal inhibition (IC50).
The same measure, in the same setting: with “(±)-1[[[4-[[4-(aminoiminomethyl)phenyl]amino]-1,4-dioxo-(2Z)-butenyl]amino]-3-pyridinepropanoic acid [Example 30]” the figure was > 10000 nM.
The same measure, in the same setting: with “Ethyl β-[[4-[[4-(aminoiminomethyl)phenyl]amino]1,4-dioxobutyl]amino]-1,3-benzodioxole-5-propanoate (isomer 1) [Example 31]” the figure was 7300 nM; with “Ethyl β-[[4-[[4-aminoiminomethyl) phenyl]amino]-1,4-dioxobutyl]amino]-1,3-benzodioxole-5-propanoate [Example 19]”, > 10000 nM; with “β-[[4-[[3-(aminoiminomethyl)phenyl]amino]-1,5-dioxopentyl]amino]-3-pyridinepropanoic acid [Example 3]”, > 10000 nM.
Same read-out and setting: with “β-[[4-[[4-(aminoiminomethyl)phenyl]amino]-1,4-dioxobutyl]amino]-1,3-benzodioxole-5-propanoic acid [Example 33]” the figure was 6800 nM.
“β-[[4-[[4-(aminoiminomethyl)phenyl]amino]-1,4-dioxobutyl]amino]-2-thiophenepropanoic acid [Example 18]” came in with an IC50 of 120 nM.
The same measure, in the same setting: with “βR-[[4-[[4-(aminoiminomethyl)phenyl]amino]-1,4-dioxobutyl]amino]-3-pyridinepropanoic acid [Example 7]” the figure was 4800 nM.

For a further experiment, the system named is collagen induced platelet aggregation. The experiment can be described thus: Inhibition of ex vivo collagen induced platelet aggregation after administration to dogs. Type of experiment: in vivo, dogs (Beagles). The settings on record: after 24 hours, administered orally to dogs at a dose of 20 mg/kg. The procedure: The purpose of this assay is to determine the effects of antiplatelet compounds on ex vivo collagen induced platelet aggregation when administered either intravenously or orally to dogs.
Pretreatment (control) blood samples are drawn from either conscious or anesthetized dogs (Beagles) and centrifuged to prepare platelet rich plasma (PRP). Aggregatory response to collagen is measured in a aggregometer and used as Control. Compounds are administered, either intragasterically (either by capsule or stomach tube or intravenously). Blood samples are drawn at predetermined intervals after compound administration, PRP prepared and aggregation to collagen determined. Compound inhibition of aggregation is determined by comparing the aggregation response after compound administration to the pretreatment response. The study is continued for a maximum of 24 hours or until the platelet aggregation returns to control levels. (If aggregation is still inhibited after 7 hours, a blood sample is drawn the following morning and tested.) Duration of activity is determined by the length of time platelet aggregation is inhibited after compound administration.
As for `CCOC(=O)C[C@H](NC(=O)CCC(=O)Nc1ccc(C(=N)N)cc1)c1cccnc1` [Example 4, Ethyl βS-[[4-[[4-(aminoiminomethyl)phenyl]amino]-1,4-dioxobutyl]amino]-3-pyridinepropanoate], the inhibited platelet aggregation result is on record as “up to 100%”.
Same read-out and setting: the result for “Ethyl-β-[[4-[[4-(aminoiminomethyl)phenyl] amino]-1,4-dioxobutyl]amino]-3-pyridinepropanoate [Example 1]” reads “up to 100%”.
Consider “β-[[4-[[4-(aminoiminomethyl)phenyl]amino]-1,4-dioxobutyl]amino]-2-furanpropanoic acid [Example 16]”, for which the inhibited platelet aggregation entry is on record as “up to 100%”.

One may read the IC50 as the midpoint of a concentration-inhibition curve. Lower therefore signals inhibition by little substance.
